8 compounds from PubChem BioAssay (NCI) can be followed below.

Test systems include A498 renal; M14 melanoma; SK-MEL-28 melanoma; HCT-15 colon; SW-620 colon; UACC-257 melanoma; MALME-3M melanoma; HS 578T breast; OVCAR-8 ovarian; CAKI-1 renal.
Holding throughout (assay): NCI anticancer screen, dose series, 48 h

Structures are written as SMILES. Values joined by “and” are separate entries in the source; they are usually repeats but may differ in a detail not shown here. Equal entries are not always repeated.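 In this assay, cells in 96-well plates receive the compound at five concentrations for 48 hours. Endpoints are linearly interpolated between the surrounding concentrations. GI50 = concentration required for 50% inhibition of growth. TGI is the concentration that stops growth completely.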

On to `COc1ccc(N(C)c2nc(Cl)nc3ccn(C)c23)cc1`, for which the GI50 was < 0.01 µM in the assay with A498 renal; < 0.01 µM with M14 melanoma; 5 µM in the assay on SK-MEL-28 melanoma; < 0.01 µM in the assay with HCT-15 colon; < 0.01 µM in the assay on SW-620 colon; > 100 µM in the assay with UACC-257 melanoma. Moreover, the values for the GI50 with MALME-3M melanoma, with HS 578T breast and in the assay with OVCAR-8 ovarian were > 100 µM, < 0.01 µM and < 0.01 µM, respectively. Besides, the TGI with A498 renal, with M14 melanoma, in the assay on SK-MEL-28 melanoma, in the assay with HCT-15 colon, in the assay on SW-620 colon and in the assay with UACC-257 melanoma was > 100 µM in each case. Moreover, the TGI in the assay with MALME-3M melanoma, in the assay on HS 578T breast and in the assay with OVCAR-8 ovarian was > 100 µM throughout.

`COc1ccc2cc3[n+](cc2c1OC)CCc1cc2c(cc1-3)OCO2`: the TGI was > 307 µM with A498 renal; > 100 µM and 210 µM in the assay on CAKI-1 renal; > 325 µM with HCT-15 colon; > 100 µM and > 73.8 µM and 170 µM in the assay with SW-620 colon; 27.8 µM [middle of 5 runs] in the assay on MALME-3M melanoma; > 100 µM and 87.1 µM and 40.7 µM in the assay on HS 578T breast. Also, the GI50 in the assay with M14 melanoma was 16.9 µM; in the assay on CAKI-1 renal it was > 100 µM and 16.8 µM and 65 µM; in the assay on SK-MEL-28 melanoma, 11.2 µM and 17.2 µM; in the assay on HCT-15 colon it was > 100 µM and 216 µM; in the assay on SW-620 colon, 14.8 µM and 25.2 µM; with MALME-3M melanoma, 2.24 µM and 5.1 µM. Further, in the assay with OVCAR-8 ovarian, the GI50 was 3.69 µM.

For `O=C(NCC(=O)N1CC[C@H](NC2CCC(O)(c3ccc(-c4ncccn4)cn3)CC2)C1)c1cccc(C(F)(F)F)c1` (some centres undefined), the GI50 in the assay on A498 renal was 24.5 µM; in the assay on CAKI-1 renal, 45.7 µM; in the assay on SK-MEL-28 melanoma it was > 100 µM; in the assay with HCT-15 colon, 52.8 µM; with SW-620 colon it was > 100 µM; in the assay with UACC-257 melanoma, 40.8 µM. Further, the GI50 in the assay with MALME-3M melanoma is 37.1 µM; with HS 578T breast, 48.9 µM; in the assay on OVCAR-8 ovarian, > 100 µM. Moreover, the TGI in the assay with A498 renal, in the assay with CAKI-1 renal, with SK-MEL-28 melanoma, in the assay on HCT-15 colon, with SW-620 colon and in the assay on UACC-257 melanoma was > 100 µM each time. The TGI in the assay on MALME-3M melanoma, in the assay on HS 578T breast and with OVCAR-8 ovarian was > 100 µM in each case.

As to `CN1C(=O)c2cc([N+](=O)[O-])ccc2[C@H]2C(=O)c3cc4c(cc3[C@H]21)OCO4`, the GI50 with A498 renal was 0.257 µM; with M14 melanoma, < 0.01 µM; with CAKI-1 renal, < 0.01 µM; in the assay on SK-MEL-28 melanoma, 0.25 µM; in the assay with HCT-15 colon, 0.19 µM; in the assay with SW-620 colon, 0.0481 µM. The GI50 in the assay on UACC-257 melanoma is 0.139 µM; in the assay on HS 578T breast it was 0.93 µM; in the assay with OVCAR-8 ovarian it was 0.0702 µM. The TGI in the assay with A498 renal is 0.528 µM; with M14 melanoma it was 0.037 µM; with CAKI-1 renal it was 0.228 µM; in the assay on SK-MEL-28 melanoma, > 32.4 µM; with HCT-15 colon it was > 50 µM; with SW-620 colon it was > 100 µM. Also, the figures for the TGI in the assay with UACC-257 melanoma and with HS 578T breast were 3.3 µM and > 100 µM, respectively.

Consider `O=c1[nH]ccc2nc(-c3ccc(CN4CCC(c5nc(-c6ccccn6)n[nH]5)CC4)cc3)c(-c3ccccc3)cc12`, for which the GI50 with A498 renal was < 0.0345 µM; in the assay on M14 melanoma, 22.2 µM; in the assay on SK-MEL-28 melanoma, 16.8 µM; in the assay on HCT-15 colon it was 16.5 µM; in the assay on SW-620 colon it was 42.3 µM; in the assay on UACC-257 melanoma, 14.8 µM. Further, the GI50 in the assay on MALME-3M melanoma is 2.09 µM; in the assay on HS 578T breast, 0.592 µM; in the assay on OVCAR-8 ovarian it was 20 µM. Also, the TGI with A498 renal was 0.355 µM; in the assay with M14 melanoma, > 100 µM; with SK-MEL-28 melanoma, > 66.1 µM; with HCT-15 colon, > 100 µM; in the assay on SW-620 colon it was > 100 µM; in the assay on UACC-257 melanoma it was 51.3 µM. Moreover, the figures for the TGI in the assay with MALME-3M melanoma, in the assay on HS 578T breast and in the assay on OVCAR-8 ovarian were 34.7 µM, 16.5 µM and > 100 µM, respectively.

Regarding `Cc1cc(O)ccc1O`, the GI50 in the assay with A498 renal was 79.9 µM; in the assay with CAKI-1 renal it was 20.7 µM; with SK-MEL-28 melanoma, 30.6 µM; in the assay with HCT-15 colon, 16.6 µM; in the assay with SW-620 colon it was 20.7 µM; with UACC-257 melanoma, 43.1 µM. Also, the figures for the GI50 with MALME-3M melanoma, with HS 578T breast and in the assay with OVCAR-8 ovarian were 15.8 µM, 26.7 µM and 32.7 µM, respectively. The TGI was > 100 µM with A498 renal; 57.4 µM with CAKI-1 renal; > 100 µM in the assay with SK-MEL-28 melanoma; 34.8 µM with HCT-15 colon; 38.6 µM in the assay on SW-620 colon; > 100 µM with UACC-257 melanoma. In addition, the values for the TGI with MALME-3M melanoma, in the assay on HS 578T breast and in the assay on OVCAR-8 ovarian were 31.1 µM, > 100 µM and > 100 µM, respectively.

Regarding `Cc1ccc(/C=C/C(=O)c2ccc(N)cc2)c(C)c1`, the GI50 in the assay on A498 renal was 13.6 µM; in the assay with M14 melanoma, 2.45 µM; with CAKI-1 renal it was 1.72 µM; in the assay on SK-MEL-28 melanoma it was 16.6 µM; with SW-620 colon it was 1.92 µM; in the assay with UACC-257 melanoma it was 14.3 µM. The values for the GI50 with MALME-3M melanoma and in the assay with HS 578T breast were 1.87 µM and 18.2 µM, respectively. Moreover, the TGI with A498 renal stood at 27.5 µM; with M14 melanoma it was 7.52 µM; with CAKI-1 renal, 3.18 µM; with SK-MEL-28 melanoma, 30.3 µM; in the assay with SW-620 colon, 3.88 µM; with UACC-257 melanoma it was 28.3 µM. Besides, the values for the TGI in the assay on MALME-3M melanoma and in the assay on HS 578T breast were 3.57 µM and 80 µM, respectively.

Take `CCCCCCCCCCCCSC(=NC)NC`: the GI50 with A498 renal is 2.63 µM; in the assay with CAKI-1 renal it was 1.92 µM; in the assay with SK-MEL-28 melanoma, 1.72 µM; in the assay with HCT-15 colon, 1.55 µM; in the assay on UACC-257 melanoma, 2.15 µM; with MALME-3M melanoma it was 2.04 µM. For the same compound, the GI50 with HS 578T breast is 2.41 µM; in the assay on OVCAR-8 ovarian it was 2.88 µM. Further, the TGI in the assay with A498 renal was found to be 8.69 µM; in the assay with CAKI-1 renal, 4.8 µM; in the assay on SK-MEL-28 melanoma it was 3.22 µM; in the assay with HCT-15 colon, 3.39 µM; in the assay on UACC-257 melanoma, 5.14 µM; in the assay with MALME-3M melanoma it was 3.97 µM. For the same compound, the results for the TGI in the assay with HS 578T breast and in the assay with OVCAR-8 ovarian were 7.07 µM and > 100 µM, respectively.
